According to ChEMBL document CHEMBL3045943, “Novel N-aryl(alkaryl)-2-[(3-R-2-oxo-2H-[1,2,4]triazino[2,3-c]quinazoline-6-yl)thio]acetamides: synthesis, cytotoxicity, anticancer activity, COMPARE analysis and docking” (2013):

How the values were obtained:
Assay type in all cases: functional
HOP-62 = experiment: Cytotoxicity against Homo sapiens (human) HOP62 cells after 48 hr by SRB assay; conditions: HOP-62, 48 h; for TGI: read-out: pTGI (converted)
SF-295 = experiment: Cytotoxicity against Homo sapiens (human) SF295 cells assessed as cell growth at 10 uM after 48 hr by SRB assay relative to control; conditions: SF-295, 48 h, read-out: Activity
A549 = experiment: Cytotoxicity against Homo sapiens (human) A549 cells assessed as cell growth at 10 uM after 48 hr by SRB assay relative to control; conditions: A549, 48 h, read-out: Activity
SW-620 = experiment: Cytotoxicity against Homo sapiens (human) SW620 cells assessed as cell growth at 10 uM after 48 hr by SRB assay relative to control; conditions: SW-620, 48 h, read-out: Activity
[1] = system: Photobacterium leiognathi; experiment: Growth inhibition of Photobacterium leiognathi Sh1 assessed as bio-luminescence at 0.25 mg/ml after 10 min by acute action test relative to control; set-up: scale not given: the % may be the effect or the level left
[2] = system: Photobacterium leiognathi; experiment: Growth inhibition of Photobacterium leiognathi Sh1 assessed as bio-luminescence at 0.025 mg/ml after 10 min by acute action test relative to control; set-up: scale not given: the % may be the effect or the level left
HCT-116 = experiment: Cytotoxicity against Homo sapiens (human) HCT116 cells assessed as cell growth at 10 uM after 48 hr by SRB assay relative to control; conditions: HCT-116, 48 h, read-out: Activity
SF-268 = experiment: Cytotoxicity against Homo sapiens (human) SF268 cells assessed as cell growth at 10 uM after 48 hr by SRB assay relative to control; conditions: SF-268, 48 h, read-out: Activity
[3] = system: Photobacterium leiognathi; experiment: Growth inhibition of Photobacterium leiognathi Sh1 assessed as bio-luminescence at 0.025 mg/ml after 16 to 18 hr by chronic action test relative to control; set-up: scale not given: the % may be the effect or the level left
786-0 [4] = experiment: Cytotoxicity against Homo sapiens (human) 786-0 cells assessed as cell growth at 10 uM after 48 hr by SRB assay relative to control; conditions: 786-0, 48 h, read-out: Activity
[5] = system: Photobacterium leiognathi; experiment: Growth inhibition of Photobacterium leiognathi Sh1 assessed as bio-luminescence at 0.1 mg/ml after 16 to 18 hr by chronic action test relative to control; set-up: scale not given: the % may be the effect or the level left
[6] = system: Photobacterium leiognathi; experiment: Growth inhibition of Photobacterium leiognathi Sh1 assessed as bio-luminescence at 0.25 mg/ml after 16 to 18 hr by chronic action test relative to control; set-up: scale not given: the % may be the effect or the level left
[7] = system: Photobacterium leiognathi; experiment: Growth inhibition of Photobacterium leiognathi Sh1 assessed as bio-luminescence at 0.1 mg/ml after 10 min by acute action test relative to control; set-up: scale not given: the % may be the effect or the level left
KM12 = experiment: Cytotoxicity against Homo sapiens (human) KM12 cells assessed as cell growth at 10 uM after 48 hr by SRB assay relative to control; conditions: KM12, 48 h, read-out: Activity
NCI-H460 = experiment: Cytotoxicity against Homo sapiens (human) NCI-H460 cells assessed as cell growth at 10 uM after 48 hr by SRB assay relative to control; conditions: NCI-H460, 48 h, read-out: Activity
LOX IMVI = experiment: Cytotoxicity against Homo sapiens (human) LOXIMVI cells assessed as cell growth at 10 uM after 48 hr by SRB assay relative to control; conditions: read-out: Activity
EKVX = experiment: Cytotoxicity against Homo sapiens (human) EKVX cells assessed as cell growth at 10 uM after 48 hr by SRB assay relative to control; conditions: read-out: Activity
SR = experiment: Cytotoxicity against Homo sapiens (human) SR cells assessed as cell growth at 10 uM after 48 hr by SRB assay relative to control; conditions: read-out: Activity
HL-60(TB) = experiment: Cytotoxicity against Homo sapiens (human) HL-60(TB) cells assessed as cell growth at 10 uM after 48 hr by SRB assay relative to control; conditions: HL-60, 48 h, read-out: Activity
786-0 [8] = experiment: Cytotoxicity against Homo sapiens (human) 786-0 cells after 48 hr by SRB assay; conditions: 786-0, 48 h
DU-145 = experiment: Cytotoxicity against Homo sapiens (human) DU145 cells assessed as cell growth at 10 uM after 48 hr by SRB assay relative to control; conditions: DU-145, 48 h, read-out: Activity
RXF 393 = experiment: Cytotoxicity against Homo sapiens (human) RXF393 cells after 48 hr by SRB assay; conditions: RXF 393, 48 h; for TGI: read-out: pTGI (converted)
IGROV-1 = experiment: Cytotoxicity against Homo sapiens (human) IGROV1 cells assessed as cell growth at 10 uM after 48 hr by SRB assay relative to control; conditions: IGROV-1, 48 h, read-out: Activity
SNB-75 = experiment: Cytotoxicity against Homo sapiens (human) SNB75 cells after 48 hr by SRB assay; conditions: SNB-75, 48 h; for TGI: read-out: pTGI (converted)
MDA-MB-435 = experiment: Cytotoxicity against Homo sapiens (human) MDA-MB-435 cells assessed as cell growth at 10 uM after 48 hr by SRB assay relative to control; conditions: MDA-MB-435, 48 h, read-out: Activity
MOLT-4 = experiment: Cytotoxicity against Homo sapiens (human) MOLT4 cells assessed as cell growth at 10 uM after 48 hr by SRB assay relative to control; conditions: MOLT-4, 48 h, read-out: Activity
OVCAR-3 [9] = experiment: Cytotoxicity against Homo sapiens (human) OVCAR3 cells assessed as cell growth at 10 uM after 48 hr by SRB assay relative to control; conditions: OVCAR-3, 48 h, read-out: Activity
K562 = experiment: Cytotoxicity against Homo sapiens (human) K562 cells assessed as cell growth at 10 uM after 48 hr by SRB assay relative to control; conditions: K562, 48 h, read-out: Activity
CAKI-1 = experiment: Cytotoxicity against Homo sapiens (human) Caki1 cells assessed as cell growth at 10 uM after 48 hr by SRB assay relative to control; conditions: CAKI-1, 48 h, read-out: Activity
SK-MEL-5 = experiment: Cytotoxicity against Homo sapiens (human) SK-MEL-5 cells after 48 hr by SRB assay; conditions: SK-MEL-5, 48 h
Hs-578T = experiment: Cytotoxicity against Homo sapiens (human) Hs 578T cells after 48 hr by SRB assay; conditions: for TGI: read-out: pTGI (converted)
UACC-62 = experiment: Cytotoxicity against Homo sapiens (human) UACC62 cells assessed as cell growth at 10 uM after 48 hr by SRB assay relative to control; conditions: UACC-62, 48 h, read-out: Activity
OVCAR-3 [10] = experiment: Cytotoxicity against Homo sapiens (human) OVCAR3 cells after 48 hr by SRB assay; conditions: OVCAR-3, 48 h
[11] = read-out: pLC50 (the source's name) (converted)

Structure (SMILES): COc1ccccc1CNC(=O)CSc1nc2ccccc2c2nc(=O)c(-c3ccccc3)nn12
- GI50 (HOP-62): 2.34 µM
- LC50 (HOP-62): 19.5 µM
- TGI (HOP-62): 5.5 µM
- growth at 10 µM (SF-295): 18.8%
- growth at 10 µM (A549): 39.7%
- growth at 10 µM (SW-620): 30.2%
- Activity [1]: 122.6%
- Activity [2]: 111.5%
- growth at 10 µM (HCT-116): 33.1%
- growth at 10 µM (SF-268): 43.5%
- Activity [3]: 150%
- growth at 10 µM (786-0 [4]): 35.3%
- Activity [5]: 80%
- Activity [6]: 73.3%
- Activity [7]: 99.1%
- growth at 10 µM (KM12): 43.3%
- growth at 10 µM (NCI-H460): 8.38%
- growth at 10 µM (LOX IMVI): 27.7%
- growth at 10 µM (EKVX): 31.4%
- growth at 10 µM (SR): 42.1%
- growth at 10 µM (HL-60(TB)): 41.9%
- GI50 (786-0 [8]): 2.24 µM
- CC50 (786-0 [8]; [11]): > 100 µM
- TGI (786-0 [8]; read-out: pTGI): 5.25 µM
- growth at 10 µM (DU-145): 0.48%
- GI50 (RXF 393): 1.78 µM
- LC50 (RXF 393): > 100 µM
- TGI (RXF 393): > 100 µM
- growth at 10 µM (IGROV-1): 18.8%
- GI50 (SNB-75): 2.24 µM
- LC50 (SNB-75): 43.7 µM
- TGI (SNB-75): 6.61 µM
- growth at 10 µM (MDA-MB-435): 27.7%
- growth at 10 µM (MOLT-4): 52.3%
- growth at 10 µM (OVCAR-3 [9]): 21.3%
- growth at 10 µM (K562): 26.4%
- growth at 10 µM (CAKI-1): -13.6%
- GI50 (SK-MEL-5): 2.69 µM
- LC50 (SK-MEL-5): > 100 µM
- TGI (SK-MEL-5; read-out: pTGI): > 100 µM
- GI50 (Hs-578T): 3.09 µM
- LC50 (Hs-578T): > 100 µM
- TGI (Hs-578T): 9.12 µM

Structure (SMILES): COc1ccc(-c2nn3c(SCC(=O)Nc4ccccc4Cl)nc4ccccc4c3nc2=O)cc1
- GI50 (HOP-62): 2.88 µM
- LC50 (HOP-62): 35.5 µM
- TGI (HOP-62): 9.77 µM
- growth at 10 µM (SF-295): 23.9%
- growth at 10 µM (A549): -29.6%
- growth at 10 µM (SW-620): 13.9%
- Activity [1]: 75%
- growth at 10 µM (UACC-62): 18.1%
- Activity [2]: 83.3%
- GI50 (OVCAR-3 [10]): 1.38 µM
- CC50 (OVCAR-3 [10]; [11]): > 100 µM
- TGI (OVCAR-3 [10]; read-out: pTGI (converted)): 3.31 µM
- growth at 10 µM (HCT-116): 12.2%
- growth at 10 µM (SF-268): 53.9%
- Activity [3]: 54.5%
- growth at 10 µM (786-0 [4]): 32.9%
- Activity [5]: 35.4%
- Activity [6]: 33.3%
- Activity [7]: 87.5%
- growth at 10 µM (KM12): 34.8%
- growth at 10 µM (NCI-H460): 24.1%
- growth at 10 µM (LOX IMVI): 42.1%
- growth at 10 µM (EKVX): 27.2%
- growth at 10 µM (SR): 37%
- growth at 10 µM (HL-60(TB)): 38.6%
- growth at 10 µM (DU-145): -17.9%
- GI50 (RXF 393): 2.63 µM
- LC50 (RXF 393): 39.8 µM
- TGI (RXF 393): 7.76 µM
- growth at 10 µM (IGROV-1): 38.4%
- GI50 (SNB-75): 2 µM
- LC50 (SNB-75): 25.1 µM
- TGI (SNB-75): 6.03 µM
- growth at 10 µM (MDA-MB-435): 15.7%
- growth at 10 µM (MOLT-4): 36.3%
- growth at 10 µM (OVCAR-3 [9]): 7.18%
- growth at 10 µM (K562): 26.9%
- growth at 10 µM (CAKI-1): 54.7%
- GI50 (Hs-578T): 1.95 µM
- LC50 (Hs-578T): > 100 µM
- TGI (Hs-578T): 6.76 µM
